# Read-outs that look alike come from different tables or passages of the source.
# Tests used:
# [1] = test system: patient with acute pancreatitis, abdominal pain; assay: Example 2: pain score of a patient with acute pancreatitis after a single dose of intravenous reduced L-glutathione; assay type: in vivo, human
# Excerpt: (§3) The patient improved substantially over a several week period on nonspecific supportive therapy but continued to require pain medication intermittently.
# [2] = test system: patients with acute pancreatitis; settings: previous studies, cited from earlier work; for benefit in patients with acute pancreatitis: administration of n-acetylcysteine together with the antioxidants selenium and vitamin C
# [3] = known value; cited from earlier work
# [4] = test system: amylase and lipase levels; settings: Example 2; for Lipase: Normal 8-57; for Amylase: Normal 30-110
# Excerpt: as §3
# [5] = test system: amylase, lipase and C-reactive protein levels; settings: Example 3; for CRP: Normal 0-7.48; for Lipase: Normal 8-57; for Amylase: Normal 30-110
# Excerpt: (§1) A person had experienced 5 weeks of increasing back and abdominal pain prior to first dose of intravenous L-glutathione. […] The patient elected to undergo intravenous L-glutathione reduced therapy for pancreatitis.
# [6] = test system: patient with back and abdominal pain, pancreatitis; settings: for Pain Score: GSH (1 gm)
# Excerpt: as §1
# [7] = test system: patient with constant abdominal pain secondary to chronic pancreatitis; settings: for Pain Score: GSH (1 gm) IV
# Excerpt: (§2) A patient who has experienced over 5 years of constant abdominal pain secondary to chronic pancreatitis is given intravenous reduced L-glutathione therapy.
# [8] = test system: amylase and lipase levels; settings: Example 1; for Lipase: Normal 8-57; for Amylase: Normal 30-110
# Excerpt: as §2
# [9] = May 7, 2008 (date of GSH infusion)
# [10] = Jun. 3, 2008 (date of first GSH dose)
# [11] = May 22, 2008 (before first GSH dose of Jun. 3, 2008)
# [12] = May 30, 2008 (before first GSH dose)
# [13] = Sep. 14, 2007 (before first GSH infusion of Sep. 28, 2007)
# [14] = Sep. 28, 2007 (date of first GSH infusion)
compound,measurement,setting,value
"COc1ccc2c3c1O[C@H]1C(=O)CC[C@H]4[C@@H](C2)N(C)CC[C@]314 [hydrocodone, reference compound]",pain,"[1]; Example 2, May 7, 2008, pain described as 10/10, relieved with hydrocodone taken at home, before GSH",5 /10
[Se] [selenium],benefit in patients with acute pancreatitis,[2],failed to show any benefit
"O=C1O[C@H]([C@@H](O)CO)C(O)=C1O [vitamin C, reference compound]",benefit in patients with acute pancreatitis,[2],failed to show any benefit
CC(C)OC(=O)CNC(=O)[C@H](CS)NC(=O)CC[C@H](N)C(=O)O [glutathione isopropyl ester],toxicity LD 50 value,[3],about 5.3 g/kg
"NC(CCC(=O)NC(CS)C(=O)NCC(=O)O)C(=O)O (stereo not shown) [GSH, 2-amino-4-[[1-(carboxymethylcarbamoyl)-2-sulfanyl-ethyl]carbamoyl]butanoic acid]",effect on multiple organ functions in patients with acute pancreatitis,[2]; administration of glutathione,protective effect
same,Lipase,[4]; [9],161
same,Amylase,[4]; [9],115
same,Lipase,"[4]; May 9, 2008",132
same,Amylase,"[4]; May 9, 2008",105
same,Pain Score,"[1]; Example 2, person, GSH (1 gm) IV, May 7, 2008, pain medication hydrocodone",5 of 10
same,Pain Score,"[1]; Example 2, May 9, 2008, follow up visit only, no infusion given, pain medication None",0 of 10
same,pain and enzyme levels,"[1]; Example 2, single dose of intravenous reduced L-glutathione",responded to a single dose
same,CRP,[5]; [10],7.84
same,Lipase,[5]; [10],112
same,Amylase,[5]; [10],95
same,CRP,"[5]; Jun. 5, 2008",9.11
same,Lipase,"[5]; Jun. 5, 2008",152
same,Amylase,"[5]; Jun. 5, 2008",128
same,Lipase,"[5]; Jun. 16, 2008",89
same,Amylase,"[5]; Jun. 16, 2008",75
same,CRP,"[5]; Jun. 25, 2008",3.97
same,Lipase,"[5]; Jun. 25, 2008",60
same,Amylase,"[5]; Jun. 25, 2008",64
same,Lipase,[5]; [11],150
same,Amylase,[5]; [11],105
same,Lipase,[5]; [12],150
same,Amylase,[5]; [12],124
same,"amylase, lipase and C-reactive protein levels",[5]; within a month of intravenous L-glutathione reduced therapy,reduction
same,Pain Score,"[6]; Example 3, person, Jun. 3, 2008, pain medication hydrocodone",5 of 10
same,Pain Score,"[6]; Example 3, Jun. 4, 2008, pain medication hydrocodone",0 of 10
same,Pain Score,"[6]; Example 3, Jun. 5, 2008, pain medication hydrocodone",2.5 of 10
same,Pain Score,"[6]; Example 3, Jun. 6, 2008, pain medication hydrocodone",4.5 of 10
same,Pain Score,"[6]; Example 3, Jun. 9, 2008, pain medication hydrocodone",3 of 10
same,Pain Score,"[6]; Example 3, Jun. 16, 2008, pain medication None",0 of 10
same,Pain Score,"[6]; Example 3, Jun. 18, 2008, pain medication None",0 of 10
same,Pain Score,"[6]; Example 3, Jun. 25, 2008, Back pain due to lifting furniture",2 of 10
same,pain,"[6]; Example 3, within a month of intravenous L-glutathione reduced therapy",significant decrease in pain
same,Pain Score,"[7]; Example 1, person, Sep. 28, 2007, pain medication hydrocodone",8 of 10
same,Pain Score,"[7]; Example 1, Dec. 10, 2007, pain medication propoxyphene",1 of 10
same,Pain Score,"[7]; Example 1, Dec. 17, 2007, pain medication None",0 of 10
same,Pain Score,"[7]; Example 1, Jan. 3, 2008, pain medication None",0 of 10
same,Pain Score,"[7]; Example 1, Nov. 12, 2007, pain medication propoxyphene",1 of 10
same,Pain Score,"[7]; Example 1, Oct. 10, 2007, pain medication propoxyphene",5 of 10
same,Pain Score,"[7]; Example 1, Oct. 29, 2007, pain medication propoxyphene",2 of 10
same,Pain reported by the patient,"[7]; Example 1, within four months of initiating reduced L-glutathione therapy",absence of pain
same,Lipase,"[8]; Jun. 27, 2008",30
same,Amylase,"[8]; Jun. 27, 2008",68
same,Lipase,"[8]; Nov. 5, 2007",39
same,Amylase,"[8]; Nov. 5, 2007",62
same,Lipase,[8]; [13],108
same,Amylase,[8]; [13],90
same,Lipase,[8]; [14],64
same,Amylase,[8]; [14],79
same,amylase and lipase levels,[8]; during the course of treatment,significantly reduced
"CC(=O)N[C@@H](CS)C(=O)O [n-acetylcysteine, reference compound]",benefit in patients with acute pancreatitis,[2],failed to show any benefit

# — patent US9289462B2, “Method for medical treatment utilizing glutathione” (priority 2008, dated 2016)
